Source: publication PMC12684391, “Mechanistic insights into the monotherapy and combination potential of FEN1 inhibition in cancer therapy” (Nucleic Acids Research, 2025)
pEC50: −log10 of the molar value.

Columns and labels:
[1] = tested on: MMEJ (resection dependent reporter); assay: Extrachromosomal MMEJ reporter assay, resection dependent, HEK-293; format: cell-based; details: Homo sapiens, HEK293, HEK-293, 24 h, read-out: MMEJ inhibition EC50
Method: MMEJ resection-independent and MMEJ resection-dependent reporter assays performed as previously described. In brief, HEK-293 cells were resuspended in supplemented SF nucleofection solution (Lonza) containing nanoluciferase DNA substrate and Firefly luciferase plasmid (Promega) at a ratio of 100 μl SF: 1500 ng nanoluciferase substrate: 1000 ng Firefly plasmid: ∼1.5 × 10^6 cells. Cells were electroporated and recovered into fresh media before seeding into a 96-well plate pre-dosed with compounds and DMSO control.
After 24 h, Firefly and NanoLuc levels were detected using the Nano-Glo® Dual-Luciferase® Reporter Assay system (Promega) as per the manufacturer’s instructions. NanoLuc luminescence (reporter) was normalized to Firefly luminescence (control) to determine substrate repair. Percentage repair was calculated relative to the DMSO control.

FEN1 (1-380) FL-6His = biological target: T1, FEN1 (1-380) FL-6His (Homo sapiens, UniProt P39748); assay: Differential scanning fluorimetry; format: binding; details: compound 100 µM
T1 construct: FEN1(1-380)-6His was immobilized on a CM5 chip; made in house; host or cells: Escherichia coli
T1 sequence (P39748 whole entry): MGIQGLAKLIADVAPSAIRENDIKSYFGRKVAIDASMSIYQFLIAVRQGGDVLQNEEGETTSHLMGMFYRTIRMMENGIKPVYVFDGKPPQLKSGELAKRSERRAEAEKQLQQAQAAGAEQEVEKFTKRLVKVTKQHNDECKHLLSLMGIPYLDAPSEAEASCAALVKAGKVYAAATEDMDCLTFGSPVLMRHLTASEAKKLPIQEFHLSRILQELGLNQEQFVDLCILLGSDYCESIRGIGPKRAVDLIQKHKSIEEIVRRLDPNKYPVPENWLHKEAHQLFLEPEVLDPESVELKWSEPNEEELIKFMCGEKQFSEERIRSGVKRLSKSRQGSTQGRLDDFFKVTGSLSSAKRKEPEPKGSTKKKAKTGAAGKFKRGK
Method: A volume of 100 nl of each compound at stock concentration of 10 mM was dispensed into a 384-well skirted PCR Plate (MicroAmp™ Optical plate) using a D300e digital dispenser (Tecan). Wells were normalized such that each contained 1% (v/v) DMSO and final compound concentration of 100 µM.
FEN1 (1-380) FL-6His protein (1.25×) and protein 5× thermal shift dye (Thermo Fisher Scientific) were prepared separately in freshly prepared differential scanning fluorimetry (DSF) assay buffer (20 mM Tris–HCl pH 7.5, 100 mM potassium chloride, 5 mM magnesium chloride, and 1 mM dithiothreitol). Eight microliters of 1.25× Fen1 (10 µM) was added to the appropriate well, plate sealed with aluminium sealing film (Axygen), and centrifuged at 500 × g for 1 min before incubating for 30 min at 4°C. After the incubation period, the plate was centrifuged again at 500 × g for 1 min and 2 µl of 5× protein thermal shift dye was added. […] Fluorescence was measured using a Quantstudio pro7.0 qPCR machine (Thermo Fisher Scientific) using internal optical ×1 filter (470 ± 15 nm) for excitation and m3 filter (586 ± 10 nm) for emission.
Each experiment was run in quadruplicates and melting temperatures (Tm) calculated as the inflection point of the derivative function using the protein thermal shift software (Thermo Fisher Scientific). DeltaTm was calculated using the Tm of protein with 1% DMSO as reference.

[2] = tested on: SUM149PT 53BP1KO and SHLD2KO cells; assay: Cell viability assay (CTG), 7 days, PARP inhibitor resistant models; format: cell-based; details: less sensitive than parental
Method: Cells were seeded in 150 μl of media in 96-well plates or in 70 μl of media in 384-well plates pre-dosed with compounds (8–10 points dose response) with a D300e digital dispenser (Tecan) and incubated for 24 h at 37°C and 5% CO2. Cell proliferation at the end of the assay (7 days) was measured using CTG (Promega, G9243). CTG luminescence was normalized to vehicle treated control for each cell line, and data were fitted with a nonlinear regression curve (four parameters) to generate compound sensitivity curves and determine IC50 or EC50 (half maximal inhibitory/effective concentration) values as indicated.

[3] = tested on: HCT-116, NCI-H460, SUM149PT, MDA-MB-436 cells; assay: Combination viability assay (CTG, Bliss synergy); format: cell-based; details: control in place of MSC778
Method: For combination analysis, cells were seeded in 70 μl of media in 384-well plates pre-dosed with compounds (5-point dose–response matrix) with a D300e digital dispenser (Tecan). Cell proliferation was determined after 7 days using CTG. Analysis was performed with Genedata Screener (Compound Synergy Extension) to determine Synergy scores (Bliss model), using a formulation whereby the Blissexcess is a continuous value and values higher than 2 are usually considered synergistic, and values between 0 and 2 are usually considered additive.

Row | pEC50 [1] | Thermal stabilization of FEN1 (DSF) (FEN1 (1-380) FL-6His) | Compound | Change in sensitivity of SUM149PT 53BP1KO and SHLD2KO cells versus parental cells [2] [fold] | Combination effects on viability with partner DDR inhibitors [3]
1 | 6.08 | thermally stabilized FEN1 | C[C@H](Oc1nn2c(c(O)c1=O)C(=O)N1CCOC[C@@H]1C2)c1ccc2ccc(Cl)cc2c1 [MSC778] | 2 | –
2 | – | – | C[C@@H](Oc1nn2c(c(O)c1=O)C(=O)N1CCOC[C@@H]1C2)c1ccc2ccc(Cl)cc2c1 [MSC781] | – | not observed
